Reference: article PMC9866728, “Dosing Methods to Enable Cell-Based In Vitro Testing of Complex Substances: A Case Study with a PAH Mixture” (Toxics, 2022)
“And” between values parts separate entries of the source, which are not always exact repeats. Identical values can stand only once. Like-named read-outs stand apart in the source and are kept apart here.

Tests used:
[1] = Loading kinetics of silicone micro-O-rings from methanol PAH solution (GC-MS/MS); assay type: physicochemical; conditions: for K Value: loading rate constant, one-phase association (h^-1); for K Value / Plateau Value / Y0: 10 µg/mL PAH mix in methanol; for Plateau Value: one-phase association fit of nominal Csilicone (µg/mL per Eq 1); for Y0: one-phase association fit of nominal Csilicone, 0-24 h; for Half-time Value / Span Value / Tau Value: one-phase association fit, micro-O-ring absorption
[2] = Smith et al. O-Rings; ref Smith et al. 2010 [24]; cited from earlier work
[3] = O-ring loading rate constant, larger O-rings; ref Smith et al. 2010 [24]; cited from earlier work
[4] = Table S1; ref PubChem; cited from earlier work
[5] = Recovery over time from exposure to cell culture media without cells (GC-MS/MS); assay type: physicochemical
[6] = bovine, 24 h
[7] = Protein binding: media-dissolved fraction (FMD) and unbound fraction (FUB) in cell culture media without cells (ultracentrifugation, GC-MS/MS)
[8] = MAF (400 ng/mL each PAH), one phase decay fit of nominal recovery
[9] = MAF (400 ng/mL each PAH), one phase decay fit of nominal recovery (text: ng/mL)
[10] = O-Rings (loaded in 10 µg/mL PAH solution), one phase association fit of nominal recovery
[11] = O-Rings, one phase association fit
[12] = O-Rings, one phase association fit (desorption into media)
[13] = Solvent Extract (DMSO, 15 ng/mL each PAH), one phase decay fit of nominal recovery
[14] = Solvent Extract (DMSO, 15 ng/mL each PAH), one phase decay fit of nominal recovery (text: ng/mL)
[15] = Solvent Extract, one phase decay fit

## c1ccc2c(c1)-c1cccc3cccc-2c13 [Fluoranthene]
[1]
  K Value: 23.4013
  Plateau Value: 0.3327
  Y0: 0
  Half-time Value: 0.02962
  Span Value: 0.3327
  Tau Value: 0.04273
[2]
  K: 0.93
[3]
  Smith et al. 2010 K Value: 1.41
[4]
  LogKow (PubChem): 5.16
[5]; [8]
  Y0: 391.9
[5]; [9]
  Plateau: 86.09
[5]; MAF, one phase decay fit
  K: 0.2998
  Span: 305.9
  Tau: 3.336
[5]; [10]
  Plateau: 0.9705
  Y0: -0.1202
[5]; [11]
  Half-time: 0.594
  Span: 1.091
  Tau: 0.857
[5]; [12]
  K: 1.167
[5]; [13]
  Y0: 14.59
[5]; [14]
  Plateau: 2.835
[5]; [15]
  K: 0.372
  Span: 11.75
  Tau: 2.688

## c1ccc2c(c1)Cc1ccccc1-2 [Fluorene]
[1]
  K Value: 26.7516
  Plateau Value: 0.7821
  Y0: 0
  Half-time Value: 0.02591
  Span Value: 0.7821
  Tau Value: 0.03738
[3]
  Smith et al. 2010 K Value: 1.89
[6]; 0.375 µg/mL
  ISTD Resp. Ratio (Raw Data for FMD): 0.7014
[6]; 10 µg/mL
  ISTD Resp. Ratio (Raw Data for FMD): 0.2015
[4]
  LogKow (PubChem): 4.18
[5]; [8]
  Y0: 397.4
[5]; [9]
  Plateau: 50.15
[5]; MAF, one phase decay fit
  K: 0.7944
  Span: 347.3
  Tau: 1.259
[5]; [10]
  Plateau: 2.925
  Y0: -0.4812
[5]; [11]
  Half-time: 0.4551
  Span: 3.406
  Tau: 0.6566
[5]; [12]
  K: 1.523
[5]; [13]
  Y0: 14.61
[5]; [14]
  Plateau: 3.728
[5]; [15]
  K: 0.435
  Span: 10.88
  Tau: 2.299

## c1ccc2c(c1)ccc1ccccc12 [Phenanthrene]
[7]; 0.375 ug/mL DMSO extract, 1 hr exposure block, stock reference samples STOCK_R1-R3, raw GC-MS/MS response ratio to ISTD
  ISTD Resp. Ratio, stock: 7.517 and 6.997 and 7.303
[7]; 0.375 ug/mL DMSO extract, 1 hr exposure, media-dissolved fraction, replicates DMSO_FMD_R1-R4, raw GC-MS/MS response ratio to ISTD
  ISTD Resp. Ratio (Raw Data for FMD): 0.8475 and 0.7152 and 0.8128 and 0.7589
[7]; 0.375 ug/mL DMSO extract, 1 hr exposure, unbound fraction, replicates DMSO_FUB_R1-R4, raw GC-MS/MS response ratio to ISTD
  ISTD Resp. Ratio (Raw Data for FUB): 0.02919 and 0.03368 and 0.0397 and 0.002786
[7]; 0.375 ug/mL DMSO extract, 24 hr exposure block, stock samples STOCK_R1-R3, GC-MS/MS area ratio to ISTD
  ISTD Resp. Ratio, stock: 9.093 and 9.139 and 8.158
[7]; 0.375 ug/mL DMSO extract, 24 hr exposure, media-dissolved fraction samples, replicates DMSO_FMD_R2-R4, GC-MS/MS area ratio to ISTD
  ISTD Resp. Ratio (Raw Data for FMD): 0.2846 and 0.2622 and 0.2363
[7]; 0.375 ug/mL DMSO extract, 24 hr exposure, media-dissolved fraction, replicate DMSO_FMD_R1, raw GC-MS/MS response ratio to ISTD
  ISTD Resp. Ratio (Raw Data for FMD): 0.2681
[7]; 0.375 ug/mL DMSO extract, 24 hr exposure, unbound fraction samples, replicates DMSO_FUB_R1-R4, GC-MS/MS area ratio to ISTD
  ISTD Resp. Ratio (Raw Data for FUB): 0.01396 and 0.01643 and 0.01239 and 0.00394
[7]; 10 ug/mL MAF (MAF_1H_FMD), 1 hour exposure, replicates R1-R3
  ISTD Resp. Ratio (raw data for FMD): 58.1761 and 43.9105 and 63.6043
[7]; 10 ug/mL MAF (MAF_1H_FUB), 1 hour exposure, replicates R1-R3
  ISTD Resp. Ratio (raw data for FUB): 0.06932 and 0.09392 and 0.08269
[7]; 10 ug/mL MAF, 24 hour exposure, samples MAF_24H_FMD_R1-R3 (replicates), raw GC-MS/MS analyte/ISTD response ratio
  ISTD Resp. Ratio, Raw Data for FMD (media-dissolved fraction): 34.5977 and 34.7241 and 34.153
[7]; 10 ug/mL MAF, 24 hour exposure, samples MAF_24H_FUB_R1-R3 (replicates), raw GC-MS/MS analyte/ISTD response ratio
  ISTD Resp. Ratio, Raw Data for FUB (unbound fraction): 0.04313 and 0.02976 and 0.1769
[7]; 10 ug/mL micro-O-Rings, 1 hour exposure, media-dissolved fraction samples, replicates ORINGS_1H_FMD_R1-R3, GC-MS/MS area ratio to ISTD
  ISTD Resp. Ratio (Raw Data for FMD): 0.01581 and 0.07741 and 0.0739
[7]; 10 ug/mL micro-O-Rings, 1 hour exposure, unbound fraction samples, replicates ORINGS_1H_FUB_R1-R3, GC-MS/MS area ratio to ISTD
  ISTD Resp. Ratio (Raw Data for FUB): 0.004514 and 0.0003336 and 0.01406
[7]; 10 ug/mL micro-O-Rings, 24 hour exposure, media-dissolved fraction samples, replicate ORINGS_24H_FMD_R1, GC-MS/MS area ratio to ISTD
  ISTD Resp. Ratio (Raw Data for FMD): 0.01817
[7]; O-rings (ORINGS_24H_FMD), 24 hour exposure, media without cells, GC-MS/MS analyte/ISTD response ratio, replicates R2-R3
  ISTD Resp. Ratio (raw data for FMD): 0.001128 and 0.05584
[7]; O-rings (ORINGS_24H_FUB), 24 hour exposure, media without cells, GC-MS/MS analyte/ISTD response ratio, replicates R1-R3
  ISTD Resp. Ratio (raw data for FUB): 0.001509 and 0.006155 and 0.006123
[7]; STOCK_10_R1-R3 (replicates) of the block 10 ug/mL MAF, 24 hr exposure, raw GC-MS/MS analyte/ISTD response ratio
  ISTD Resp. Ratio, stock: 241.043 and 253.185 and 249.851
[7]; STOCK_10 reference samples of the 10 ug/mL MAF section, replicates R1-R3
  ISTD Resp. Ratio (STOCK_10): 251.693 and 253.185 and 259.309
[7]; STOCK_10 reference samples of the O-rings section, replicates R1-R3
  ISTD Resp. Ratio (STOCK_10): 105.268 and 100.389 and 100.167
[1]
  K Value: 29.7306
  Plateau Value: 0.2434
  Y0: 0
  Half-time Value: 0.02331
  Span Value: 0.2434
  Tau Value: 0.03364
[2]
  K: 1.32
[3]
  Smith et al. 2010 K Value: 1.66
[4]
  LogKow (PubChem): 4.46
[5]; [8]
  Y0: 398.5
[5]; [9]
  Plateau: 48.89
[5]; MAF, one phase decay fit
  K: 0.9181
  Span: 349.6
  Tau: 1.089
[5]; [10]
  Plateau: 0.3728
  Y0: -0.1954
[5]; [11]
  Half-time: 0.1645
  Span: 0.5682
  Tau: 0.2373
[5]; [12]
  K: 4.214
[5]; [13]
  Y0: 14.6
[5]; [14]
  Plateau: 2.716
[5]; [15]
  K: 0.502
  Span: 11.89
  Tau: 1.992
